# According to PubChem BioAssay (NCI):
# “And” between values parts separate entries of the source, which are not always exact repeats. Equal entries are not always repeated.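 Method: 48-hour compound exposure of cells in 96-well plates, five concentrations, linear interpolation of endpoints. GI50 marks 50% less growth. TGI denotes the concentration required for complete inhibition of growth.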
# What was measured:
# Assay in all cases: DTP human tumour cell line panel, 48 h
# [1] = tested on: TK-10 renal
# [2] = tested on: LOX IMVI melanoma
# [3] = tested on: NCI-H460 lung
# [4] = tested on: OVCAR-8 ovarian
# [5] = tested on: A498 renal
# [6] = tested on: PC-3 prostate
# [7] = tested on: EKVX NSCLC
# [8] = tested on: UACC-257 melanoma
# [9] = tested on: SF-295 CNS
# [10] = tested on: HL-60(TB) leukemia
SMILES,GI50 [1],TGI [1],GI50 [2],TGI [2],GI50 [3],TGI [3],GI50 [4],TGI [4],GI50 [5],TGI [5],GI50 [6],TGI [6],GI50 [7],TGI [7],GI50 [8],TGI [8],GI50 [9],TGI [9],GI50 [10],TGI [10]
Cn1nccc1Nc1nccc(-c2ccn([C@H](CO)c3ccc(Cl)c(F)c3)c(=O)c2)n1,24 µM,> 100 µM,3.72 µM,28.1 µM,38.4 µM,> 100 µM,6.56 µM,> 100 µM,1.07 µM,15.3 µM,43.6 µM,> 100 µM,22.8 µM,> 100 µM,0.158 µM,> 100 µM,76.3 µM,> 100 µM,1.89 µM,30.4 µM
CC(Br)C(=O)NC(CO)C(=O)O (configuration not stated),,> 100 µM,,> 100 µM,,> 100 µM,,> 100 µM,,> 100 µM,,> 100 µM,,> 100 µM,,> 100 µM,,> 100 µM,,> 100 µM
Nc1ncnc2c1N=C(c1ccc3c(c1)OCO3)CC(c1ccc(Cl)cc1)N2 (configuration not stated),8.22 µM,38.9 µM,10.1 µM,33 µM,21.8 µM,> 100 µM,4.66 µM,25.1 µM,5.93 µM,> 100 µM,9.06 µM,22.1 µM,40.6 µM,> 100 µM,> 100 µM,> 100 µM,14.7 µM,> 100 µM,5.38 µM,> 100 µM
Nc1ncc(Cc2ccc3c(c2)OCO3)c(N)n1,,> 100 µM,,> 100 µM,,> 100 µM,,> 100 µM,,> 100 µM,,> 100 µM,,> 100 µM,,> 100 µM,,> 100 µM,,> 100 µM
CNCc1cccc2c1OCCOCCOCCN(C)S(=O)(=O)c1ccc(cc1)-c1cnc(N)c(n1)C(=O)N2,2.06 µM,20.8 µM,1.05 µM,3.23 µM,0.868 µM,2.95 µM,1.88 µM,4.46 µM,0.133 µM,4.04 µM,1.94 µM,8.09 µM,2.83 µM,12.7 µM,2.69 µM,5.64 µM,3.35 µM,13.3 µM,0.578 µM,3.14 µM
Cn1c([N+](=O)[O-])cnc1C=C1C(=O)c2ccccc2C1=O,7.07 µM,21.8 µM,2.84 µM,11.1 µM,7.1 µM,22 µM,2.18 µM,6.54 µM,7.05 µM,22.6 µM,8.89 µM,28.5 µM,,,3.12 µM,14.7 µM,21.2 µM,77.7 µM,2.27 µM,6.08 µM
COc1cc2c(cc1Nc1nc(N3CCc4ccccc43)c3cc[nH]c3n1)N(C(=O)CN(C)C)CC2,1.67 µM,3.37 µM,1.59 µM,10.2 µM,1.29 µM,2.79 µM,1.67 µM,3.84 µM,8.43 µM,14.1 µM,2.24 µM,6.43 µM,5.11 µM,13.9 µM,4.25 µM,9.3 µM,4.79 µM,11.8 µM,1.18 µM,6.82 µM
O=C(/C=C/C12c3ccccc3C(c3ccccc31)C1C(=O)NC(=O)C12)c1ccccn1 (configuration not stated),2.35 µM,5.31 µM,1.11 µM,2.51 µM,1.08 µM,4.11 µM,1.8 µM,5.54 µM,1.66 µM,3.15 µM,1.67 µM,4.46 µM,1.91 µM,4.93 µM,1.88 µM,3.56 µM,1.61 µM,3.49 µM,1.02 µM,3.41 µM
CC(C)(CO)CNC(=O)c1ccc2[nH]c(O)c(N=Nc3ccc(S(N)(=O)=O)cc3)c2c1,> 25 µM,> 25 µM,> 25 µM,> 25 µM,> 25 µM,> 25 µM,> 25 µM,> 25 µM,> 25 µM,> 25 µM,> 25 µM,> 25 µM,> 25 µM,> 25 µM,> 25 µM,> 25 µM,> 25 µM,> 25 µM,> 25 µM,> 25 µM
Cc1cc(O)c2c(c1)C(=O)C=CC2=O,5.92 µM and 12.7 µM,15.6 µM and 26.9 µM,,12.6 µM and > 100 µM,,45.5 µM and 31.1 µM,14.1 µM and 4.75 µM,43.9 µM and 14.8 µM,,40.7 µM and 75.2 µM,,46.3 µM and 25.5 µM,7.46 µM and 3.6 µM,20.6 µM and 15.2 µM,9.95 µM,11.3 µM and 27.8 µM,,32.7 µM and 39 µM,0.0336 µM and 0.31 µM,0.202 µM and 1.89 µM
CC1(C)N=C(N)N=C(N)N1c1ccc(CCC(=O)Nc2ccc(S(=O)(=O)F)cc2)cc1,1.72 µM,> 100 µM,1.66 µM,> 100 µM,0.253 µM,> 100 µM,5.08 µM,> 100 µM,5.99 µM,> 100 µM,0.0593 µM,> 72.1 µM,,,15.5 µM,> 100 µM,4.49 µM,> 100 µM,0.854 µM,> 100 µM
N#CC1c2ccccc2C=CN1C(=O)CCCl (configuration not stated),2.16 µM,6.02 µM,3.94 µM,13.4 µM,18.4 µM,36.3 µM,14.4 µM,30.6 µM,11.7 µM,25.8 µM,14.1 µM,28.5 µM,,,13.1 µM,26.5 µM,29.4 µM,> 87.5 µM,9.09 µM,40.8 µM
COc1ccc2c(c1)c(-c1nc(-c3c[nH]c4ncccc34)cs1)cn2CCCN1CCOCC1,3.48 µM,13.6 µM,1.74 µM,3.27 µM,2.54 µM,6.6 µM,,,0.481 µM,2.04 µM,2.48 µM,8.68 µM,3.01 µM,16.8 µM,2.04 µM,3.81 µM,1.91 µM,4.17 µM,2.11 µM,4.36 µM
